Earlier results on one compound are cited in patent publication US12533314B2, “Low sodium oxybate once nightly composition” (Tris Pharma, Inc., priority 2023, dated 2026).

The conditions of the data set: in vivo.

Structures are written as SMILES.

Regarding `O=C(O)CCCO` [Oxybate, Gamma-hydroxybutyrate], the plasma half-life is 30 to 45 min.
